Assay results reported in US20240025919A1, “AZA-TETRACYCLIC OXAZEPINE COMPOUNDS AND USES THEREOF” (Genentech, Inc., priority 2022, published 2024).

Experiments:
KRAS WT [1] = target: T1, KRAS WT (Homo sapiens (Human), UniProt P01116); assay: KRAS WT Biochemical Assay, BODIPY-GDP Exchange TR-FRET (Example 502; 0.06 nM KRAS WT, 15 nM GDP, 300 nM SOS1, 120-minute incubation); conditions: read-out: KRas HTRF IC50
Method: Example 502: KRAS WT Biochemical Assay, BODIPY-GDP Exchange TR-FRET. Biochemical compound potencies are assessed by evaluating inhibition of SOS1-mediated nucleotide exchange in KRAS WT. In this assay, the SOS1-promoted exchange of fluorescently-labeled GDP (BOPIDY-GDP) is monitored by time-resolved fluorescence resonance energy transfer (TR-FRET). Compounds solubilized in DMSO are dispensed as concentration series into 384-well white assay plates. A preformed complex of 0.06 nM biotin-tagged recombinant human KRAS WT, 15 nM GDP and 0.06 nM terbium-labeled streptavidin (CisBIO) prepared in 10 uL/well assay buffer (20 mM HEPES, pH 7.5, 50 mM NaCl, 10 mM MgCl2, 0.01% Tween-20 and 1 mM dithiothreitol) is added and allowed to incubate for 10-minutes at room temperature. The reaction is initiated with the addition of 5 uL 300 nM recombinant human SOS1 and 300 nM BODIPY-GDP in assay buffer. After a 120-minute incubation, the fluorescence is measured with excitation at 337 nm and emission at 490 and 520 nm. The TR-FRET ratio is determined as the fluorescence at 520 nm divided by the fluorescence at 490 nm multiplied by 10,000. The results are normalized to percent inhibition based on control samples: DMSO (0% inhibition) and control compound at a concentration that inhibits completely (100% inhibition). The normalized TR-FRET results are plotted against compound concentration, and the data are fit to a 4-parameter Hill equation to determine the IC50 values.

KRAS G12D = KRAS G12D (Homo sapiens (Human), UniProt P01116, G12D); assay: KRAS G12D LoEnz Biochemical Assay, BODIPY-GDP Exchange TR-FRET (SOS1-mediated nucleotide exchange); conditions: read-out: KRas (G12D) GDP HTRF IC50
KRAS WT [2] = target: T1, KRAS WT; assay: KRAS WT Biochemical Assay, BODIPY-GDP Exchange TR-FRET (Example 501; 3 nM KRAS WT, 3 nM SOS1, 60-minute incubation); conditions: read-out: KRas HTRF IC50
Procedure, shortened: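 SOS1-mediated exchange assay: 3 nM biotin-KRAS WT with terbium-streptavidin, started with 3 nM SOS1 and 300 nM BODIPY-GDP, HEPES pH 7.5 with MgCl2. TR-FRET (520/490 nm) read after 60 min; normalized to DMSO and full-inhibition control, IC50 from 4-parameter Hill fit.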

KRAS G12D, sequence (P01116-2 other isoform, or with tags, fused parts or gaps G12D): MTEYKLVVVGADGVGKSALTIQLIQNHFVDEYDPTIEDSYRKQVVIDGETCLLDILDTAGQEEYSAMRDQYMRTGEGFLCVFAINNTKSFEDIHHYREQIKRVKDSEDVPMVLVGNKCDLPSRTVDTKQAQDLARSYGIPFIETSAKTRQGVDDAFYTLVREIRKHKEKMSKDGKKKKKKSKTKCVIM
T1 sequence (P01116-2 other isoform, or with tags, fused parts or gaps): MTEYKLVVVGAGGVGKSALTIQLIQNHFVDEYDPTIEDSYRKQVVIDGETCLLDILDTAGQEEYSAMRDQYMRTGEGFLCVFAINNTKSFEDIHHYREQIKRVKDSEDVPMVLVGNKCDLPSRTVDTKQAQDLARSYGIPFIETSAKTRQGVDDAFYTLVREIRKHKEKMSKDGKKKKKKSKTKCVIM

Which results are given for `Cc1c(F)c(N)cc(-c2nc3c4c(nc(OC[C@H]5C[C@@H]6COCCN65)nc4c2F)N2C[C@H]4CC[C@H](N4)[C@H]2[C@H](C)O3)c1C(F)(F)F` (mixture of isomers) [159 (mixture), 5-((5S,5aS,6S,9R)-12-((4-Oxa-1-azabicyclo[4.2.0]octan-8-yl)methoxy)-1-fluoro-5-methyl-5a,6,7,8,9,10-hexahydro-5H-4-oxa-3,10a,11,13,14-pentaaza-6,9-methanonaphtho[1,8-ab]heptalen-2-yl)-2-fluoro-3-methyl-4-(trifluoromethyl)aniline]?
IC50 (KRAS WT [1]): 45.2 nM; IC50 (KRAS G12D): 0.23 nM

For `Cc1c(F)c(N)cc(-c2nc3c4c(nc(OCC5CCC6CN(C)C(=O)CN56)nc4c2F)N2C[C@H]4CC[C@H](N4)[C@H]2[C@H](C)O3)c1C(F)(F)F` (mixture of isomers) [Compound 124, 6-((((5S,5aS,6S,9R)-2-(5-Amino-4-fluoro-3-methyl-2-(trifluoromethyl)phenyl)-1-fluoro-5-methyl-5a,6,7,8,9,10-hexahydro-5H-4-oxa-3,10a,11,13,14-pentaaza-6,9-methanonaphtho[1,8-ab]heptalen-12-yl)oxy)methyl)-2-methylhexahydropyrrolo[1,2-a]pyrazin-3(4H)-one], which IC50 (KRAS WT [1]) is on record?
The IC50 was 619 nM.

And the IC50 (KRAS G12D)?
The IC50 was 1.74 nM.

For `Cc1c(F)c(N)cc(-c2nc3c4c(nc(OC[C@@H]5CC[C@@H]6CC(F)(F)CCN65)nc4c2F)N2C[C@H]4CC[C@H](N4)[C@H]2[C@H](C)O3)c1C(F)(F)F` (single isomer, unassigned) [119 (isomer 1)], which IC50 (KRAS WT [1]) is on record?
Its IC50 is 787 nM.

And the IC50 (KRAS G12D)?
The IC50 was 4.38 nM.

`Cc1c(F)c(N)cc(-c2nc3c4c(nc(OC[C@@H]5CCC6CC(F)(F)CCN65)nc4c2F)N2C[C@H]4CC[C@H](N4)[C@H]2[C@H](C)O3)c1C(F)(F)F` (single isomer, unassigned) [119 (isomer 2)] was tested. Which IC50 (KRAS WT [1]) did it give?
The IC50 was 75 nM.

And the IC50 (KRAS G12D)?
Its IC50 is 0.37 nM.

Which results are given for `Cc1c(F)c(N)cc(-c2nc3c4c(nc(OC[C@@]5(CCF)CCCN5C)nc4c2F)N2C[C@H]4CC[C@H](N4)[C@H]2[C@H](C)O3)c1C(F)(F)F` (single isomer, unassigned) [127 (isomer 1)]?
IC50 (KRAS WT [1]): 17.9 nM; IC50 (KRAS G12D): 0.14 nM

Which results are given for `Cc1c(F)c(N)cc(-c2nc3c4c(nc(OC[C@]5(CCF)CCCN5C)nc4c2F)N2C[C@H]4CC[C@H](N4)[C@H]2[C@H](C)O3)c1C(F)(F)F` (single isomer, unassigned) [127 (isomer 2)]?
IC50 (KRAS WT [1]): 37.7 nM; IC50 (KRAS G12D): 0.19 nM

For `Cc1c(F)c(N)cc(-c2nc3c4c(nc(OC[C@@H]5CC[C@@H]6C[C@@H](C(=O)N(C)C)CCN65)nc4c2F)N2C[C@H]4CC[C@H](N4)[C@H]2[C@H](C)O3)c1C(F)(F)F` (single isomer, unassigned) [133 (isomer 1)], which IC50 (KRAS WT [1]) is on record?
The IC50 was 13.6 nM.

What about the IC50 (KRAS G12D) of the same molecule?
The IC50 was 0.12 nM.

How did the IC50 (KRAS WT [1]) turn out when `C[C@@H]1Oc2nc(-c3cc(N)c(F)c(F)c3CC(F)F)c(F)c3cc(OC[C@@H]4CC[C@H]5COCCN54)nc(c23)N2C[C@H]3CC[C@H](N3)[C@@H]12` [Compound 158, 4-(2,2-Difluoroethyl)-2,3-difluoro-5-((5S,5aS,6S,9R)-1-fluoro-13-(((6S,8aS)-hexahydro-1H-pyrrolo[2,1-c][1,4]oxazin-6-yl)methoxy)-5-methyl-5a,6,7,8,9,10-hexahydro-5H-6,9-epiminoazepino[2′,1′:3,4][1,4]oxazepino[5,6,7-ij][2,7-]naphthyridin-2-yl)aniline] was run?
Its IC50 is 121 nM.

For `Cc1nc(N)cc(-c2nc3c4c(nc(OCC5(CN6CCC(C(F)F)C6)CC5)nc4c2F)N2C[C@H]4CC[C@H](N4)[C@H]2[C@H](C)O3)c1C(F)(F)F` (stereo partly drawn) [Compound 276, 4-((5S,5aS,6S,9R)-12-((1-((3-(difluoromethyl)pyrrolidin-1-yl)methyl)cyclopropyl)methoxy)-1-fluoro-5-methyl-5a,6,7,8,9,10-hexahydro-5H-4-oxa-3,10a,11,13,14-pentaaza-6,9-methanonaphtho[1,8-ab]heptalen-2-yl)-6-methyl-5-(trifluoromethyl)pyridin-2-amine], which IC50 (KRAS WT [2]) is on record?
The IC50 was 8.91 nM.

And the IC50 (KRAS G12D)?
Its IC50 is 0.26 nM.
